Activity calls are given as the source filed them. No cut-off for these calls is given here.
Tests used:
[1] = target: T1, Amine oxidase [flavin-containing] B (Homo sapiens, UniProt P27338); conditions: 0.5 h, read-out: INH
T1 sequence (P27338 whole entry): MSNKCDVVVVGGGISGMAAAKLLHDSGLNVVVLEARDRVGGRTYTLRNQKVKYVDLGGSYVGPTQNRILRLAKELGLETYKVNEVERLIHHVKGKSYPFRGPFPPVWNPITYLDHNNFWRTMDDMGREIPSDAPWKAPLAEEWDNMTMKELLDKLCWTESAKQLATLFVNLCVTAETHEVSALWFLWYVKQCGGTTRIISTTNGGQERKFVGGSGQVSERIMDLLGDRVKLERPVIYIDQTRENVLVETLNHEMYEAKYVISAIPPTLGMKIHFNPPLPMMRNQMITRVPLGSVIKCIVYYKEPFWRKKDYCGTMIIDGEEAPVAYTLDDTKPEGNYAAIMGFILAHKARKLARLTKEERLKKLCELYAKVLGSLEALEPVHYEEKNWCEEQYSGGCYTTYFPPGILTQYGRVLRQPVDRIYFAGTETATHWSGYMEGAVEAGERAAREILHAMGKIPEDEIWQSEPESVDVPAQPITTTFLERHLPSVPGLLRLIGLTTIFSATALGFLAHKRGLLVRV
Description: Inhibition of recombinant human MAO-B at 10 uM incubated for 30 mins by fluorescence-based method

[2] = target: Cholinesterase (Equus caballus) (UniProt P81908); assay: Inhibition of equine serum BChE using (S)-butyrylthiocholine iodide as substrate at 10 uM measured for 6 mins by Ellman's method
Cholinesterase (Equus caballus), sequence (P81908 whole entry): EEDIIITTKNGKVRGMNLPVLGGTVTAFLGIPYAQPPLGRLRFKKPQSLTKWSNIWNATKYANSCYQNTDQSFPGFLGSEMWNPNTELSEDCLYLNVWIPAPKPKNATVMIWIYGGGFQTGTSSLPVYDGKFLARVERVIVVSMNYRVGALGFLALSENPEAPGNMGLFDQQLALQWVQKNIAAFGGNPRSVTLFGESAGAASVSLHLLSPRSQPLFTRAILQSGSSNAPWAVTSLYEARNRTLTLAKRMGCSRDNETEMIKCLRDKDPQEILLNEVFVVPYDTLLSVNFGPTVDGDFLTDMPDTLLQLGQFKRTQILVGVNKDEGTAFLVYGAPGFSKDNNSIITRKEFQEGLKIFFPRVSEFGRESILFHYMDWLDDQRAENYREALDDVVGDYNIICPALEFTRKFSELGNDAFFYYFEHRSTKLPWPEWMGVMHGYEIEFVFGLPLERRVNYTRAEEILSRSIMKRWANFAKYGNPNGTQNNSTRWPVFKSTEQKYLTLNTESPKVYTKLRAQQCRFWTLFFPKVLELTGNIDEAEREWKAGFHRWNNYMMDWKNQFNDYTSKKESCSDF

[3] = target: Acetylcholinesterase (Electrophorus electricus) (UniProt O42275); assay: Inhibition of electric eel AchE using acetylthiocholine as substrate at 10 uM measured for 6 mins by Ellman's method
Acetylcholinesterase (Electrophorus electricus), sequence (O42275 24-633 limits assumed): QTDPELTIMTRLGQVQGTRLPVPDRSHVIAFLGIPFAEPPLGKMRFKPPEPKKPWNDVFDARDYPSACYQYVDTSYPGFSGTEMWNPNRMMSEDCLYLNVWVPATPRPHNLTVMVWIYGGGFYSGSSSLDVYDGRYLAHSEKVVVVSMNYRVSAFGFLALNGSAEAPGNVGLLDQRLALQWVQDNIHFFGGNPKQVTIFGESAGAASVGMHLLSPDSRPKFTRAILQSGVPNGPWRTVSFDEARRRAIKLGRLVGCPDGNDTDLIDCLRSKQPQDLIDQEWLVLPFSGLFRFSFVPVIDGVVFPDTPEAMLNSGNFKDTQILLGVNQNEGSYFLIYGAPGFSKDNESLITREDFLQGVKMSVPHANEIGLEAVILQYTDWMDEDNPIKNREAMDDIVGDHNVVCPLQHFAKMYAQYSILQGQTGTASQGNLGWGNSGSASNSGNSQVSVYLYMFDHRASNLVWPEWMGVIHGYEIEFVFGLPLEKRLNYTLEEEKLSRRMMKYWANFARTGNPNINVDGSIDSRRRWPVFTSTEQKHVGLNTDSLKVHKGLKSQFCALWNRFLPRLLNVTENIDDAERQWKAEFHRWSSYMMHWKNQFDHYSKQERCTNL

[4] = target: T2, Amine oxidase [flavin-containing] A (Homo sapiens, UniProt P21397)
T2 sequence (P21397 whole entry): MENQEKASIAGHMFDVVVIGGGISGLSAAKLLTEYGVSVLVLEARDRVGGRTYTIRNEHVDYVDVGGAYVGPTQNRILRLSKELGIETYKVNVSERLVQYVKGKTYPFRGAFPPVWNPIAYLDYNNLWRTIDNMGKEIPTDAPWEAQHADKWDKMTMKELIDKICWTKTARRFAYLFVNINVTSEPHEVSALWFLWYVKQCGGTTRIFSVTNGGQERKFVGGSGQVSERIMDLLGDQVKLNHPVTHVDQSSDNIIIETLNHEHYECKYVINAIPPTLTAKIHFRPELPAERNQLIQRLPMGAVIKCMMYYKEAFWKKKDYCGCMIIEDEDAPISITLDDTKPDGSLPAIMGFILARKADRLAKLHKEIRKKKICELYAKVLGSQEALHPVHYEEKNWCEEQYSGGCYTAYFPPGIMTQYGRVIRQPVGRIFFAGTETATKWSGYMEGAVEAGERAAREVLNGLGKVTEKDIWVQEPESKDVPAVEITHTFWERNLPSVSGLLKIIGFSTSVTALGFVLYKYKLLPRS
Description: Inhibition of recombinant human MAO-A incubated for 30 mins by fluorescence-based method

C[N+]1=Cc2c(O)ccc3[nH]cc(c23)CC1
inhibition at 10 µM [1]: 31% | inhibition [2]: 21% | inhibition [3]: inactive | IC50 [4]: 0.9 µM

C=C[C@H]1[C@H](O[C@@H]2O[C@H](CO)[C@@H](O)[C@H](O)[C@H]2O)OC=C(C(=O)OC)[C@H]1C[C@@H]1c2c(O)ccc3[nH]cc(c23)CCN1C
inhibition [2]: inactive | inhibition [3]: inactive | IC50 [4]: > 10 µM

CN1CCc2c[nH]c3ccc(O)c(c23)C1
inhibition at 10 µM [1]: 22% | inhibition [2]: 18% | inhibition [3]: inactive | IC50 [4]: 1.4 µM

C=C[C@H]1[C@H](O[C@@H]2O[C@H](CO)[C@@H](O)[C@H](O)[C@H]2O)OC=C(C(=O)OC)[C@H]1C[C@H]1c2c(O)ccc3[nH]cc(c23)CCN1C
inhibition [2]: inactive | inhibition [3]: inactive | IC50 [4]: > 10 µM

C[N+]1([O-])CCc2c[nH]c3ccc(O)c(c23)C1 (configuration not stated)
inhibition at 10 µM [1]: 27% | inhibition [2]: 41% | inhibition [3]: inactive | IC50 [4]: 1.4 µM

C#CCN(C)Cc1ccccc1 [PARGYLINE]
inhibition at 10 µM [1]: 0.14%

C=C[C@H]1[C@H](O[C@@H]2O[C@H](COC(=O)/C=C/c3ccc(OC)c(OC)c3)[C@@H](O)[C@H](O)[C@H]2O)OC=C(C(=O)OC)[C@H]1C[C@H]1c2c(O)ccc3[nH]cc(c23)CCN1C
inhibition [2]: inactive | inhibition [3]: inactive | IC50 [4]: > 10 µM
